Test results: paper PMC10066365, “Nemacol is a small molecule inhibitor of C. elegans vesicular acetylcholine transporter with anthelmintic potential” (Nature Communications, 2023)
Values joined by “and” are separate entries in the source; they are usually repeats but may differ in a detail not shown here. Equal entries are not always repeated.

System: C. elegans
Assay: C. elegans motor phenotype scoring on solid media (Punc/jerky-unc, coiled, paralyzed), wild-type young adults
Assay type: in vivo, Caenorhabditis elegans
Conditions: for P (number of animals) / Punc (number of animals) / C1 (number of animals) / C2 (number of animals) / Fraction Coiled / Fraction Paralyzed / Fraction Punc / NP (number of animals) / Next Day Animals alive (moving fine): single replicate; for AVERAGES Fraction Coiled / AVERAGES Fraction Paralyzed / AVERAGES Fraction Punc: average of 3 replicates
[1] = 60uM, one hour, young adults, 20 animals per trial, single replicate counts

SMILES: O=[N+]([O-])c1ccc(N2CCN(CC3CC=CCC3)CC2)cc1 (stereo not shown) [Nemacol-4]
- P (number of animals) (30 μM, 90 min): 3 and 0
- Punc (number of animals) (30 μM, 90 min): 13 and 9 and 14
- AVERAGES Fraction Coiled (30 μM, 120 min): 0.0741
- AVERAGES Fraction Paralyzed (30 μM, 120 min): 0.0185
- AVERAGES Fraction Punc (30 μM, 120 min): 0.5
- C1 (number of animals) (30 μM, 120 min): 2 and 1
- C2 (number of animals) (30 μM, 120 min): 0
- Fraction Coiled (30 μM, 120 min): 0.111 and 0.0556
- Fraction Paralyzed (30 μM, 120 min): 0.0556 and 0.0
- Fraction Punc (30 μM, 120 min): 0.556 and 0.5
- NP (number of animals) (30 μM, 120 min): 5 and 8
- P (number of animals) (30 μM, 120 min): 1 and 0
- Punc (number of animals) (30 μM, 120 min): 10 and 9
- AVERAGES Fraction Coiled (30 μM, 240 min): 0.0
- AVERAGES Fraction Paralyzed (30 μM, 240 min): 0.0
- AVERAGES Fraction Punc (30 μM, 240 min): 0.333
- C1 (number of animals) (30 μM, 240 min): 0
- C2 (number of animals) (30 μM, 240 min): 0
- Fraction Coiled (30 μM, 240 min): 0.0
- Fraction Paralyzed (30 μM, 240 min): 0.0
- Fraction Punc (30 μM, 240 min): 0.333 and 0.222 and 0.444
- NP (number of animals) (30 μM, 240 min): 12 and 14 and 10
- P (number of animals) (30 μM, 240 min): 0
- Punc (number of animals) (30 μM, 240 min): 6 and 4 and 8
- AVERAGES Fraction Coiled (30 μM, 360 min): 0.0
- AVERAGES Fraction Paralyzed (30 μM, 360 min): 0.0
- AVERAGES Fraction Punc (30 μM, 360 min): 0.111
- C1 (number of animals) (30 μM, 360 min): 0
- C2 (number of animals) (30 μM, 360 min): 0
- Fraction Coiled (30 μM, 360 min): 0.0
- Fraction Paralyzed (30 μM, 360 min): 0.0
- Fraction Punc (30 μM, 360 min): 0.0556 and 0.278 and 0.0
- NP (number of animals) (30 μM, 360 min): 17 and 13 and 18
- P (number of animals) (30 μM, 360 min): 0
- Punc (number of animals) (30 μM, 360 min): 1 and 5 and 0
- Next Day Animals alive (moving fine) (30 μM): alive, recovered
- AVERAGES Fraction Coiled (60 μM, 30 min): 0.111
- AVERAGES Fraction Paralyzed (60 μM, 30 min): 0.0
- AVERAGES Fraction Punc (60 μM, 30 min): 0.8
- C1 (number of animals) (60 μM, 30 min): 1 and 0
- C2 (number of animals) (60 μM, 30 min): 2 and 1
- Fraction Coiled (60 μM, 30 min): 0.167 and 0.0556 and 0.111
- Fraction Paralyzed (60 μM, 30 min): 0.0
- Fraction Punc (60 μM, 30 min): 0.7 and 0.9
- NP (number of animals) (60 μM, 30 min): 2 and 4 and 0
- P (number of animals) (60 μM, 30 min): 0
- Punc (number of animals) (60 μM, 30 min): 13 and 16
- AVERAGES Fraction Coiled (60 μM, 60 min): 0.149
- AVERAGES Fraction Paralyzed (60 μM, 60 min): 0.037
- AVERAGES Fraction Punc (60 μM, 60 min): 0.7
- C1 (number of animals) (60 μM, 60 min): 2 and 0 and 1
- C2 (number of animals) (60 μM, 60 min): 2 and 1
- Fraction Coiled (60 μM, 60 min): 0.222 and 0.0588 and 0.167
- Fraction Paralyzed (60 μM, 60 min): 0.111 and 0.0
- Fraction Punc (60 μM, 60 min): 0.667 and 0.7 and 0.8
- NP (number of animals) (60 μM, 60 min): 0 and 4
- P (number of animals) (60 μM, 60 min): 2 and 0
- Punc (number of animals) (60 μM, 60 min): 12 and 15
- AVERAGES Fraction Coiled (60 μM, 90 min): 0.148
- AVERAGES Fraction Paralyzed (60 μM, 90 min): 0.111
- AVERAGES Fraction Punc (60 μM, 90 min): 0.741
- C1 (number of animals) (60 μM, 90 min): 3 and 1 and 0
- C2 (number of animals) (60 μM, 90 min): 1 and 2
- Fraction Coiled (60 μM, 90 min): 0.222 and 0.167 and 0.0556
- Fraction Paralyzed (60 μM, 90 min): 0.222 and 0.0556
- Fraction Punc (60 μM, 90 min): 0.556 and 0.8 and 0.9
- NP (number of animals) (60 μM, 90 min): 0
- P (number of animals) (60 μM, 90 min): 4 and 1
- Punc (number of animals) (60 μM, 90 min): 10 and 14 and 16
- AVERAGES Fraction Coiled (60 μM, 120 min): 0.111
- AVERAGES Fraction Paralyzed (60 μM, 120 min): 0.037
- AVERAGES Fraction Punc (60 μM, 120 min): 0.8
- C1 (number of animals) (60 μM, 120 min): 1 and 0
- C2 (number of animals) (60 μM, 120 min): 1 and 2
- Fraction Coiled (60 μM, 120 min): 0.111
- Fraction Paralyzed (60 μM, 120 min): 0.0556 and 0.0
- Fraction Punc (60 μM, 120 min): 0.7 and 0.9 and 0.8
- NP (number of animals) (60 μM, 120 min): 2 and 0
- P (number of animals) (60 μM, 120 min): 1 and 0
- Punc (number of animals) (60 μM, 120 min): 13 and 16 and 15
- AVERAGES Fraction Coiled (60 μM, 240 min): 0.0
- AVERAGES Fraction Paralyzed (60 μM, 240 min): 0.037
- AVERAGES Fraction Punc (60 μM, 240 min): 0.5
- C1 (number of animals) (60 μM, 240 min): 0
- C2 (number of animals) (60 μM, 240 min): 0
- Fraction Coiled (60 μM, 240 min): 0.0
- Fraction Paralyzed (60 μM, 240 min): 0.0 and 0.111
- Fraction Punc (60 μM, 240 min): 0.4 and 0.333 and 0.7
- NP (number of animals) (60 μM, 240 min): 11 and 12 and 3
- P (number of animals) (60 μM, 240 min): 0 and 2
- Punc (number of animals) (60 μM, 240 min): 7 and 6 and 13
- AVERAGES Fraction Coiled (60 μM, 360 min): 0.0
- AVERAGES Fraction Paralyzed (60 μM, 360 min): 0.0
- AVERAGES Fraction Punc (60 μM, 360 min): 0.37
- C1 (number of animals) (60 μM, 360 min): 0
- C2 (number of animals) (60 μM, 360 min): 0
- Fraction Coiled (60 μM, 360 min): 0.0
- Fraction Paralyzed (60 μM, 360 min): 0.0
- Fraction Punc (60 μM, 360 min): 0.333 and 0.444
- NP (number of animals) (60 μM, 360 min): 12 and 10
- P (number of animals) (60 μM, 360 min): 0
- Punc (number of animals) (60 μM, 360 min): 6 and 8
- Next Day Animals alive (moving fine) (60 μM): alive, recovered
- any phene, mean % fraction of young adults exhibiting any phenotype (coiled, jerky-Unc or paralyzed) (60uM, one hour, mean of three biological replicates): 94.1667%
- atypical locomotion (number of animals) [1]: 9 and 8 and 13 and 10 and 2 and 3
- coiled (number of animals) [1]: 8 and 7 and 3 and 1 and 4 and 5
- no phene (number of animals) [1]: 0 and 3 and 4
- paralyzed (number of animals) [1]: 3 and 5 and 1 and 14 and 12
- EC50 (Caenorhabditis elegans, 1 h, Fig. 1, dose-response at 60 min, wild-type young adults, +/- 95% CI, read-out: EC50): 15 ± 2.3 µM
